Experimental data: patent US7625875B2 (priority 2002, dated 2009)

Columns and labels:
HCV = experiment: Clinical antiviral activity, serum HCV RNA (Amplicor HCV Monitor), val-mCyd daily for 15 days
in vitro = settings: human
[1] = Stability in human plasma
[2] = Safety in the chimpanzee model of chronic HCV infection; format: in vivo; settings: 10 or 20 mg/kg/day dihydrochloride PO, 7 days
Source text: Chimpanzees were monitored by trained veterinarians throughout the study for weight loss, temperature, appetite, and general well being, as well as for blood chemistry profile and CBCs. […] The drug appeared to be well tolerated by all four treated animals. […] A single animal experienced an alanine aminotransferase (ALT) flare in the pretreatment period prior to the start of dosing, but the ALT levels diminished during treatment. Thus, this isolated ALT event was not attributable to drug.

## CC(C)C(N)C(=O)OC1[C@@H](CO)O[C@@H](n2ccc(N)nc2=O)[C@@]1(C)O (stereo partly drawn) [val-mCyd, 2-Amino-3-methyl-butyric acid 5-(4-amino-2-oxo-2H-pyrimidine-1-yl)-4-hydroxy-2 hydroxy-methyl-4-methyl-tetrahydro-furan-3-yl ester]
HCV; 50 mg, Day 17
  Change from baseline (Day 1) in Log10 HCV RNA, median: −0.21 log10
  HCV RNA in Log10 scale, mean: 6.54 log10
  HCV RNA in Log10 scale, median: 6.54 log10
HCV; 50 mg, Day 22
  Change from baseline (Day 1) in Log10 HCV RNA, mean: −0.09 log10
  Change from baseline (Day 1) in Log10 HCV RNA, median: −0.09 log10
  HCV RNA in Log10 scale, mean: 6.64 log10
  HCV RNA in Log10 scale, median: 6.73 log10
HCV; 50 mg, Day 29
  Change from baseline (Day 1) in Log10 HCV RNA, mean: −0.01 log10
  Change from baseline (Day 1) in Log10 HCV RNA, median: −0.04 log10
  HCV RNA in Log10 scale, mean: 6.71 log10
  HCV RNA in Log10 scale, median: 6.67 log10
HCV; 50 mg, Day −1 (pre-treatment)
  HCV RNA in Log10 scale, mean: 6.72 log10
  HCV RNA in Log10 scale, median: 6.81 log10
HCV; 100 mg, Day 1 (baseline)
  HCV RNA in Log10 scale, mean: 6.68 log10
  HCV RNA in Log10 scale, median: 6.93 log10
HCV; 100 mg, Day 2
  Change from baseline (Day 1) in Log10 HCV RNA, mean: −0.16 log10
  Change from baseline (Day 1) in Log10 HCV RNA, median: −0.12 log10
  HCV RNA in Log10 scale, mean: 6.52 log10
  HCV RNA in Log10 scale, median: 6.80 log10
HCV; 100 mg, Day 4
  Change from baseline (Day 1) in Log10 HCV RNA, mean: −0.25 log10
  Change from baseline (Day 1) in Log10 HCV RNA, median: −0.24 log10
  HCV RNA in Log10 scale, mean: 6.43 log10
  HCV RNA in Log10 scale, median: 6.46 log10
HCV; 100 mg, Day 8
  Change from baseline (Day 1) in Log10 HCV RNA, mean: −0.21 log10
  Change from baseline (Day 1) in Log10 HCV RNA, median: −0.20 log10
  HCV RNA in Log10 scale, mean: 6.42 log10
  HCV RNA in Log10 scale, median: 6.59 log10
HCV; 100 mg, Day 11
  Change from baseline (Day 1) in Log10 HCV RNA, mean: −0.32 log10
  Change from baseline (Day 1) in Log10 HCV RNA, median: −0.28 log10
  HCV RNA in Log10 scale, mean: 6.36 log10
  HCV RNA in Log10 scale, median: 6.56 log10
HCV; 100 mg, Day 15
  Change from baseline (Day 1) in Log10 HCV RNA, mean: −0.38 log10
  Change from baseline (Day 1) in Log10 HCV RNA, median: −0.43 log10
  HCV RNA in Log10 scale, mean: 6.30 log10
  HCV RNA in Log10 scale, median: 6.41 log10
HCV; 100 mg, Day 16
  Change from baseline (Day 1) in Log10 HCV RNA, mean: −0.39 log10
  Change from baseline (Day 1) in Log10 HCV RNA, median: −0.49 log10
  HCV RNA in Log10 scale, mean: 6.23 log10
  HCV RNA in Log10 scale, median: 6.40 log10
HCV; 100 mg, Day 17
  Change from baseline (Day 1) in Log10 HCV RNA, mean: −0.18 log10
  Change from baseline (Day 1) in Log10 HCV RNA, median: −0.24 log10
  HCV RNA in Log10 scale, mean: 6.65 log10
  HCV RNA in Log10 scale, median: 6.72 log10
HCV; 100 mg, Day 22
  Change from baseline (Day 1) in Log10 HCV RNA, mean: −0.15 log10
  Change from baseline (Day 1) in Log10 HCV RNA, median: −0.19 log10
  HCV RNA in Log10 scale, mean: 6.53 log10
  HCV RNA in Log10 scale, median: 6.66 log10
HCV; 100 mg, Day 29
  Change from baseline (Day 1) in Log10 HCV RNA, mean: 0.13 log10
  Change from baseline (Day 1) in Log10 HCV RNA, median: −0.12 log10
  HCV RNA in Log10 scale, mean: 6.67 log10
  HCV RNA in Log10 scale, median: 6.71 log10
HCV; 100 mg, Day −1 (pre-treatment)
  HCV RNA in Log10 scale, mean: 6.60 log10
  HCV RNA in Log10 scale, median: 6.75 log10
In vitro
  CC50: 24 µM
[1]; 37° C., after 10 hours
  input val-mCyd remaining: 2%
[1]; human, plasma
  half-life: 109 min
[2]
  adverse events, tolerability: No adverse events due to drug were noted
